Assay [1] addresses Serine/threonine-protein kinase MARK1 (Homo sapiens) (UniProt Q9P0L2). The note with it: at 10 µM.
The target in assay [2] is T1, Protein kinase C iota type (Homo sapiens) (UniProt P41743).
T1 sequence (whole entry): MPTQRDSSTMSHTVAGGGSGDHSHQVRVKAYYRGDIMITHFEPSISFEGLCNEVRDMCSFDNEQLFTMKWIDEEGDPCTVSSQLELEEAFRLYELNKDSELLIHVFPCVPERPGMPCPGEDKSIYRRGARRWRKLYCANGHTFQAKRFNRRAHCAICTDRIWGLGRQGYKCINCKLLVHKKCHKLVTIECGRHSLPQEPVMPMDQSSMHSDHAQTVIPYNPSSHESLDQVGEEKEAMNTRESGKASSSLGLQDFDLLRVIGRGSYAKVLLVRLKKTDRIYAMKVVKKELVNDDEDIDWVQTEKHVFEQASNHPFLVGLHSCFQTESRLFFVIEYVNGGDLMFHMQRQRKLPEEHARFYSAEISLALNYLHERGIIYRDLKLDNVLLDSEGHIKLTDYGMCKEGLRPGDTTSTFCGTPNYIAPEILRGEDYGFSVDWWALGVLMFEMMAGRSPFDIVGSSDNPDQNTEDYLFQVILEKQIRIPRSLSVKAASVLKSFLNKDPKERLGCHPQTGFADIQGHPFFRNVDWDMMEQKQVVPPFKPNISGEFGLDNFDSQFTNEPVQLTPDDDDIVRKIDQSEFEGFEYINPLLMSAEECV
The assay is described as follows: Selectivity interaction (KinomeScan (DiscoverX)) EUB0000092b PRKCI. The note with it: at 10 µM.

Assay [3] deals with T2, Aurora kinase A (Homo sapiens) (UniProt O14965).
T2 sequence (whole entry): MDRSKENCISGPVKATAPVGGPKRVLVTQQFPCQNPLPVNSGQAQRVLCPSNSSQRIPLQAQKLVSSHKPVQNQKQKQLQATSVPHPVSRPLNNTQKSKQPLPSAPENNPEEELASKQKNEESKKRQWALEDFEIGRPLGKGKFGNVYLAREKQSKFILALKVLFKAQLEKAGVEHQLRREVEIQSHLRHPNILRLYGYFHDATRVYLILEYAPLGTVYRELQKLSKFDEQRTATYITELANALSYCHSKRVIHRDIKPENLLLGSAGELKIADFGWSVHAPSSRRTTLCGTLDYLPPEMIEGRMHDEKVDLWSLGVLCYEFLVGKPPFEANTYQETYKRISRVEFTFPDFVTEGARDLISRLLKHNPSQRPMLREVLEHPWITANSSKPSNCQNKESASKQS
The experiment in a line: Selectivity interaction (KinomeScan (DiscoverX)) EUB0001049a STK6. Conditions: at 1 µM.

In assay [4] the target is T3, Dual specificity mitogen-activated protein kinase kinase 7 (Homo sapiens) (UniProt O14733).
T3 sequence (whole entry): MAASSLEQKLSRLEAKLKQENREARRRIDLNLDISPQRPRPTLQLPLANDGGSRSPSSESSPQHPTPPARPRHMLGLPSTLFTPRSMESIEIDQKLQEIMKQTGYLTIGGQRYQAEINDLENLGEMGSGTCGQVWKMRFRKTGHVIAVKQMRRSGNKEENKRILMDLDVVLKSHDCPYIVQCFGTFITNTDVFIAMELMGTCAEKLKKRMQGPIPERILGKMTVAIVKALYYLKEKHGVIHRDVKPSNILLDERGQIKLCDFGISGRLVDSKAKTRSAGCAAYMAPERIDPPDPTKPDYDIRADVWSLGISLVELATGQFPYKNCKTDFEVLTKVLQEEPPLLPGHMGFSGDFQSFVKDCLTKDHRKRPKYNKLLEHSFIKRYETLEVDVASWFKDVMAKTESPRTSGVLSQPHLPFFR
The assay is described as follows: Selectivity interaction (Kinase screening (Nanosyn)) EUB0000604a MAP2K7.

In assay [5] the target is Cyclin-dependent kinase 7 (Homo sapiens, UniProt P50613). The assay is described as follows: Selectivity interaction (ActivX KiNativ screen (kinase selectivity in THP-1 cell lysates)) EUB0000639a CDK7. Format: subcellular. The note with it: lysate, at 0.2 µM.
Cyclin-dependent kinase 7, sequence (P50613 whole entry): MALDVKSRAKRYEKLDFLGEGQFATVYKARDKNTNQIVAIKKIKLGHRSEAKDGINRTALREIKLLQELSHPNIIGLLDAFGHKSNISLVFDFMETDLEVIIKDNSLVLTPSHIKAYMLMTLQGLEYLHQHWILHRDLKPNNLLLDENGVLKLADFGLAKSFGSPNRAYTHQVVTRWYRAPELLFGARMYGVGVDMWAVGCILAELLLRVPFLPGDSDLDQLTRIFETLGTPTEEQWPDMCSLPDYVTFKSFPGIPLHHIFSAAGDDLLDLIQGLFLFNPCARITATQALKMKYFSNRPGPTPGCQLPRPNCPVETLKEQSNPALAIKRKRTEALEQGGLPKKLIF
Assay [6] has as its target T4, Cyclin-dependent kinase-like 2 (Homo sapiens) (UniProt Q92772).
T4 sequence (whole entry): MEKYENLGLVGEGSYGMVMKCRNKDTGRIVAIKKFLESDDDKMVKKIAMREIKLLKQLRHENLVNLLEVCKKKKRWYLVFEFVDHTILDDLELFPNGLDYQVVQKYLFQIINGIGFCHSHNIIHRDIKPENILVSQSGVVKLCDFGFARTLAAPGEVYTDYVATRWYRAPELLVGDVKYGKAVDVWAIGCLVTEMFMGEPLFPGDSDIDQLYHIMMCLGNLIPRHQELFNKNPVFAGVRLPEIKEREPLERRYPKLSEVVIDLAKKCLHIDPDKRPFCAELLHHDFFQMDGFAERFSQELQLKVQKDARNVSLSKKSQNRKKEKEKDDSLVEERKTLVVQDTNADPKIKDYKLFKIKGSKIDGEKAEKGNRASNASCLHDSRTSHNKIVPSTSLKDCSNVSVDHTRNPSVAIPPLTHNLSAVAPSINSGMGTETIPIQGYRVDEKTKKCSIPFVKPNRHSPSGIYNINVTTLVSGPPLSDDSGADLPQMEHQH
The experiment in a line: Selectivity interaction (KinomeScan (DiscoverX)) EUB0001619a CDKL2. Conditions: at 1 µM.

The target in assay [7] is T5, Rhodopsin kinase GRK7 (Homo sapiens) (UniProt Q8WTQ7).
T5 sequence (whole entry): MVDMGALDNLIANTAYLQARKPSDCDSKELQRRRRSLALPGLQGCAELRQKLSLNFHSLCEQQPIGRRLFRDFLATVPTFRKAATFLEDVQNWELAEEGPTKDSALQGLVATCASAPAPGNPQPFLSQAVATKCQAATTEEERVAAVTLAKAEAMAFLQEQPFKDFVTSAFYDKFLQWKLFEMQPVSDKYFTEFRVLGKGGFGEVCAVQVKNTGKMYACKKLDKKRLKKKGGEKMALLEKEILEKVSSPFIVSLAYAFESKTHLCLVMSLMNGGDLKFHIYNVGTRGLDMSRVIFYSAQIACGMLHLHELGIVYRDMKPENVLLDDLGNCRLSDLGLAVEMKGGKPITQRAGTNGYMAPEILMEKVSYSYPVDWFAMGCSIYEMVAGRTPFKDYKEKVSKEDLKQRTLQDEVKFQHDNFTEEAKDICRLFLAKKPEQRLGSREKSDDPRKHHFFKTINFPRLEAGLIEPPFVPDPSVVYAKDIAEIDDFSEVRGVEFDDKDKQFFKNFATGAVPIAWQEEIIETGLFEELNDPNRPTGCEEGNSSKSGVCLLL
The assay is described as follows: Selectivity interaction (KinomeScan (DiscoverX)) EUB0000618a GRK7. Conditions: at 10 µM.

Data on 7 compounds can be found in ChEMBL document CHEMBL5465560, “Selectivity Literature for EUbOPEN Chemogenomic Library” (2024).

Serine/threonine-protein kinase MARK1 (Homo sapiens), sequence (Q9P0L2 whole entry, looked up): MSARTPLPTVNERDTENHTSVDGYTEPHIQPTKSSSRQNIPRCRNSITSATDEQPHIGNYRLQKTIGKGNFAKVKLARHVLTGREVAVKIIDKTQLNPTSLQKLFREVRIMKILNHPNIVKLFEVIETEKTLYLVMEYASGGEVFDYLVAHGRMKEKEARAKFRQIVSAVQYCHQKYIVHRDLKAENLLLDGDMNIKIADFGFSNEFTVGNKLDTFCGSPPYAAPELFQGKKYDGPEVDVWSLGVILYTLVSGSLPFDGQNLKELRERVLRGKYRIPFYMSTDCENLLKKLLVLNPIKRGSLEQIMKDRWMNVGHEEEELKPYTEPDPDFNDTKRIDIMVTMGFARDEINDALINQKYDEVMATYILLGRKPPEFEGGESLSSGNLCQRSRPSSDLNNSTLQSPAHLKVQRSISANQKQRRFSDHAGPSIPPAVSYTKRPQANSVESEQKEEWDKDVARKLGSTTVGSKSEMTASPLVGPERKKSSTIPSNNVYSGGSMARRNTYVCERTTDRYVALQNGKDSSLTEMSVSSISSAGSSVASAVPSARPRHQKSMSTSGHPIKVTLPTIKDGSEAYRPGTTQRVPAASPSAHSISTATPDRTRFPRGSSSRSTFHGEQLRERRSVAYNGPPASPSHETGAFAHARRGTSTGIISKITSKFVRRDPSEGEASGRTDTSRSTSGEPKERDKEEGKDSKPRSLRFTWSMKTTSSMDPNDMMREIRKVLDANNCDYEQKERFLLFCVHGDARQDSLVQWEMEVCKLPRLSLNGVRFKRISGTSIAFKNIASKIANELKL

`Cc1cc([C@@H](C)Nc2ccccc2C(=O)O)c2nc(N3CCOCC3)cc(=O)n2c1` [AZD-6482]: the % of control in assay [1] worked out at 100%.
For the compound `CCC(=O)N1CCN(c2ccc(-n3c(=O)ccc4cnc5ccc(-c6cnc7ccccc7c6)cc5c43)cc2C(F)(F)F)CC1`, the % of control in assay [2] turned out to be 85%.
`COc1cc(Nc2nc(C)cc(-c3cnn4nc(OC)ccc34)n2)cc(C(F)(F)F)c1`: the % of control in assay [3] amounted to 93%.
In the case of `Cc1cnc(Nc2ccc(F)cc2Cl)nc1-c1c[nH]c(C(=O)N[C@H](CO)c2cccc(Cl)c2)c1`, the % of inhibition in assay [4] stood at 6%.
For the compound `CC[C@@H]1[C@H](F)C(=O)N[C@@H]1COc1nccc2cc(C(N)=O)c(OC)cc12` [ZIMLOVISERTIB], the % of inhibition in assay [5] is -4.5%.
In assay [6], `N#Cc1cccc(-c2c[nH]c3ncnc(N4CCOCC4)c23)c1` yielded a % of control of 98%.
For `O[C@H]1CC[C@H](Nc2ncc3nc(Nc4c(F)cc(F)cc4F)n([C@H]4CCOC4)c3n2)CC1`, the % of control in assay [7] stood at 86%.
